What was measured:
[1] = target: PI3-kinase p110-delta/p85-alpha (Homo sapiens, UniProt O00329); experiment: Inhibition of N-terminal His6-tagged recombinant full-length human p110delta/untagged recombinant full length p85alpha expressed in baculovirus infected Sf21 cells using phosphatidylinositol as substrate in presence of gamma-32P-ATP after 5 mins by thin layer chromatographic method
[2] = Antiproliferative activity against Balb/c mouse splenic B cells preincubated for 30 mins followed by LPS or F(ab')2 donkey anti-mouse IgM and recombinant mouse IL4 stimulation measured after 72 hrs by Alamar Blue reduction assay; type: functional, cell-based
PI3K p110 beta/p85 alpha = PI3K p110 beta/p85 alpha (Homo sapiens, UniProt P42338); experiment: Inhibition of N-terminal His6-tagged recombinant full-length human p110beta/untagged recombinant full length p85alpha expressed in baculovirus infected Sf21 cells using phosphatidylinositol as substrate in presence of gamma-32P-ATP after 5 mins by thin layer chromatographic method
[3] = target: Phosphatidylinositol 4,5-bisphosphate 3-kinase catalytic subunit gamma isoform (Homo sapiens, UniProt P48736); experiment: Inhibition of recombinant human C-terminal His6-tagged p110gamma expressed in insect cells using phosphatidylinositol as substrate in presence of gamma-32P-ATP after 5 mins by thin layer chromatographic method
[4] = target: PI3-kinase p110-alpha/p85-alpha (Homo sapiens, UniProt P42336); experiment: Inhibition of N-terminal His6-tagged recombinant full-length human p110alpha/untagged recombinant full length human p85alpha expressed in baculovirus infected Sf21 cells using phosphatidylinositol as substrate in presence of gamma-32P-ATP after 5 mins by thin layer chromatographic method
Chain of PI3-kinase p110-alpha/p85-alpha (P27986 whole entry): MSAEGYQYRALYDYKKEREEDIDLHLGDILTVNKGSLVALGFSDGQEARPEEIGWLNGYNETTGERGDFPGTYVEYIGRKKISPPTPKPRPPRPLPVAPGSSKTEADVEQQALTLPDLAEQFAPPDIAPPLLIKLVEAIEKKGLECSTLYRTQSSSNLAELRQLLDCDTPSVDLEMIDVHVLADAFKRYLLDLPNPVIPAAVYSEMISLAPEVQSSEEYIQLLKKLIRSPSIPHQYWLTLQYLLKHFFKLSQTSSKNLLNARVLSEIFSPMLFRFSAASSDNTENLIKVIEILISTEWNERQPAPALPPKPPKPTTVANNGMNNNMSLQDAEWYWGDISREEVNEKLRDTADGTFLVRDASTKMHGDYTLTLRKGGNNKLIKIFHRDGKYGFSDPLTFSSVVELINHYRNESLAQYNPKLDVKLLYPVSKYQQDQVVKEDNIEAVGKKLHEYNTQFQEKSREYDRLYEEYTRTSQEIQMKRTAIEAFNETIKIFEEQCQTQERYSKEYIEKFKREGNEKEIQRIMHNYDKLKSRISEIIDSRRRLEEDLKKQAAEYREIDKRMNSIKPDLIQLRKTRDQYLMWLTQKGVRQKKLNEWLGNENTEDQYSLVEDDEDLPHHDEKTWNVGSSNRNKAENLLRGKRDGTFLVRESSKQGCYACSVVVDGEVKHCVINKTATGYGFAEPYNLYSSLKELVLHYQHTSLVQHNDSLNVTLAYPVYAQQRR
Chain of PI3-kinase p110-alpha/p85-alpha (P42336 whole entry): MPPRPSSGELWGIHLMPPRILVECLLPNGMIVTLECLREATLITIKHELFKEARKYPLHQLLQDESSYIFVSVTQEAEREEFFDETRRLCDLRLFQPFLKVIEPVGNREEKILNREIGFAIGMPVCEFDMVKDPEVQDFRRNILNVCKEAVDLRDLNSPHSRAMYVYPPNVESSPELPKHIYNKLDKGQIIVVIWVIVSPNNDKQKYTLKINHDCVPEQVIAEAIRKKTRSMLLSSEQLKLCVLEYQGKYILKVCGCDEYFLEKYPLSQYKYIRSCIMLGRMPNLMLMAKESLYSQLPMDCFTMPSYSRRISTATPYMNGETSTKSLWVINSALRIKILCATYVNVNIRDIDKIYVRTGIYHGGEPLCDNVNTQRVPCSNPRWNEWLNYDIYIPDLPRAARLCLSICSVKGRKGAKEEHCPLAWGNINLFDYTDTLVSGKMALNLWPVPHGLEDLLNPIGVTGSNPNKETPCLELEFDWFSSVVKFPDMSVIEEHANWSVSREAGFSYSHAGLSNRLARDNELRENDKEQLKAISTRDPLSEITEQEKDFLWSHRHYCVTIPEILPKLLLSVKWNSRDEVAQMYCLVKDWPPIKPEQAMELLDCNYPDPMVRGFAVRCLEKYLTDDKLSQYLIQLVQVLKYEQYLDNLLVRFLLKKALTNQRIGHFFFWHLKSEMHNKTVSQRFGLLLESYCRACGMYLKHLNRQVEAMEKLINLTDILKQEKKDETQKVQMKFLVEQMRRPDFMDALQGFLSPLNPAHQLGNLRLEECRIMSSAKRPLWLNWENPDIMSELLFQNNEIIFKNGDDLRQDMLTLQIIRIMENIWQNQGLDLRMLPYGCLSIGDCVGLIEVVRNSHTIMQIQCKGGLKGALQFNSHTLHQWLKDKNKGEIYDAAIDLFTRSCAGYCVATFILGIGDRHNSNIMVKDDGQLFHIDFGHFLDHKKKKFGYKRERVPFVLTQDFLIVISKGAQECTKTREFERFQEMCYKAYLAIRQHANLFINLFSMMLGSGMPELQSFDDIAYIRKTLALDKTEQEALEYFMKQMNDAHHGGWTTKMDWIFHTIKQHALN

Chain of Phosphatidylinositol 4,5-bisphosphate 3-kinase catalytic subunit gamma isoform (P48736 whole entry, canonical isoform): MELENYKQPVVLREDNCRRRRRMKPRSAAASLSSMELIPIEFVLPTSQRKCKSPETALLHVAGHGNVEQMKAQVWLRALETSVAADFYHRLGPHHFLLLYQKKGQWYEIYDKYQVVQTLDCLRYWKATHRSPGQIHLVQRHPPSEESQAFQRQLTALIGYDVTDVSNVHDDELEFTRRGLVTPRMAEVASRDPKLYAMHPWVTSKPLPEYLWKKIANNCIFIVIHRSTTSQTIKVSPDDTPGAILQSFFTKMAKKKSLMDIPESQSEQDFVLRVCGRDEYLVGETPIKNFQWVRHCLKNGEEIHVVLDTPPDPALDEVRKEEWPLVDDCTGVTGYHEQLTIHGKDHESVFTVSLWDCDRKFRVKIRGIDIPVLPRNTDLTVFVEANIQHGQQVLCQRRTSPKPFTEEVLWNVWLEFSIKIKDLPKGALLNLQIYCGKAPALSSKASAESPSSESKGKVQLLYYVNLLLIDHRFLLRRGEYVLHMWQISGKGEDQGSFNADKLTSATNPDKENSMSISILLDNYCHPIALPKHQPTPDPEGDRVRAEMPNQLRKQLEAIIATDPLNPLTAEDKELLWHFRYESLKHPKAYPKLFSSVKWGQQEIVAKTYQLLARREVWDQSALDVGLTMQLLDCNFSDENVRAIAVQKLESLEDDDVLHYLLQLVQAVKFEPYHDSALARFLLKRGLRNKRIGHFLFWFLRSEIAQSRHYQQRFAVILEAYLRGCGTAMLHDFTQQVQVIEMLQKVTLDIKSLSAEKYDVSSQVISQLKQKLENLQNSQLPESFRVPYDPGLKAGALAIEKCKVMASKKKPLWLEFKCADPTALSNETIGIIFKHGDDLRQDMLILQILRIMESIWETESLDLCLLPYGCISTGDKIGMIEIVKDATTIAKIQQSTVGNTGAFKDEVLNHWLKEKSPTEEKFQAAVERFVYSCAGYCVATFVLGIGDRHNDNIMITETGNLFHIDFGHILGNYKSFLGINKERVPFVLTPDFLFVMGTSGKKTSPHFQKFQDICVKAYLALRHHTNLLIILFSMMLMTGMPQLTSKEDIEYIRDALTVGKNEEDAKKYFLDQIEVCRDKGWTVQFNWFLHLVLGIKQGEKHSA
Chain of PI3-kinase p110-delta/p85-alpha (P27986 whole entry): as the sequence (P27986 whole entry) above
Chain of PI3-kinase p110-delta/p85-alpha (O00329 whole entry): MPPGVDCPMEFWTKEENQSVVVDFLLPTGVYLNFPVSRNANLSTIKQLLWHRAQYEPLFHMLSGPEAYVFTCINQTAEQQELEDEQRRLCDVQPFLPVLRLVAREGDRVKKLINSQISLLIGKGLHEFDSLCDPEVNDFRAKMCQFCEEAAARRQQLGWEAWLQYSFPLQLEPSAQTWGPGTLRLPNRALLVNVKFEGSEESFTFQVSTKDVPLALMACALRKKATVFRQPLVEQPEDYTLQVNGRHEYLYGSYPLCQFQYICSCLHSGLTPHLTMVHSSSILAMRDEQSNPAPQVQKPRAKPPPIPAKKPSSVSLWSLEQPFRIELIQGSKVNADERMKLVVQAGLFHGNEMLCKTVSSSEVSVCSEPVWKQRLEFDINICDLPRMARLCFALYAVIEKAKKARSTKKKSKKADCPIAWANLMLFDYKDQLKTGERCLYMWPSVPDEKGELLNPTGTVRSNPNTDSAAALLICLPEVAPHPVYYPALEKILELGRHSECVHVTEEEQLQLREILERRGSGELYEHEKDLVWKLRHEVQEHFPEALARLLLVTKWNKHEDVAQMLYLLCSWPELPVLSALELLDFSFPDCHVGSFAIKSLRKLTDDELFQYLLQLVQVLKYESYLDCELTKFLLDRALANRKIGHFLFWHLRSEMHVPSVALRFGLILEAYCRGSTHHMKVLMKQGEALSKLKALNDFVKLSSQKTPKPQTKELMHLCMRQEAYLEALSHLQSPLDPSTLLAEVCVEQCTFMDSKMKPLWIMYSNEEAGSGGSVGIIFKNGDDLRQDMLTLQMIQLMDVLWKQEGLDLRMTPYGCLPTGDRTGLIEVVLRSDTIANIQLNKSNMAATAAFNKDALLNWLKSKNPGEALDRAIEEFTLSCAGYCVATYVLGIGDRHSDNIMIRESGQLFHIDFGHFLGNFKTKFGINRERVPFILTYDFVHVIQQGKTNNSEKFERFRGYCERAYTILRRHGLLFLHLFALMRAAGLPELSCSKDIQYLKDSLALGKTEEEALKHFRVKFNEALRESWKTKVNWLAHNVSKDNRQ
Chain of PI3K p110 beta/p85 alpha (P27986 whole entry, canonical isoform): as the sequence (P27986 whole entry) above
Chain of PI3K p110 beta/p85 alpha (P42338 whole entry, canonical isoform): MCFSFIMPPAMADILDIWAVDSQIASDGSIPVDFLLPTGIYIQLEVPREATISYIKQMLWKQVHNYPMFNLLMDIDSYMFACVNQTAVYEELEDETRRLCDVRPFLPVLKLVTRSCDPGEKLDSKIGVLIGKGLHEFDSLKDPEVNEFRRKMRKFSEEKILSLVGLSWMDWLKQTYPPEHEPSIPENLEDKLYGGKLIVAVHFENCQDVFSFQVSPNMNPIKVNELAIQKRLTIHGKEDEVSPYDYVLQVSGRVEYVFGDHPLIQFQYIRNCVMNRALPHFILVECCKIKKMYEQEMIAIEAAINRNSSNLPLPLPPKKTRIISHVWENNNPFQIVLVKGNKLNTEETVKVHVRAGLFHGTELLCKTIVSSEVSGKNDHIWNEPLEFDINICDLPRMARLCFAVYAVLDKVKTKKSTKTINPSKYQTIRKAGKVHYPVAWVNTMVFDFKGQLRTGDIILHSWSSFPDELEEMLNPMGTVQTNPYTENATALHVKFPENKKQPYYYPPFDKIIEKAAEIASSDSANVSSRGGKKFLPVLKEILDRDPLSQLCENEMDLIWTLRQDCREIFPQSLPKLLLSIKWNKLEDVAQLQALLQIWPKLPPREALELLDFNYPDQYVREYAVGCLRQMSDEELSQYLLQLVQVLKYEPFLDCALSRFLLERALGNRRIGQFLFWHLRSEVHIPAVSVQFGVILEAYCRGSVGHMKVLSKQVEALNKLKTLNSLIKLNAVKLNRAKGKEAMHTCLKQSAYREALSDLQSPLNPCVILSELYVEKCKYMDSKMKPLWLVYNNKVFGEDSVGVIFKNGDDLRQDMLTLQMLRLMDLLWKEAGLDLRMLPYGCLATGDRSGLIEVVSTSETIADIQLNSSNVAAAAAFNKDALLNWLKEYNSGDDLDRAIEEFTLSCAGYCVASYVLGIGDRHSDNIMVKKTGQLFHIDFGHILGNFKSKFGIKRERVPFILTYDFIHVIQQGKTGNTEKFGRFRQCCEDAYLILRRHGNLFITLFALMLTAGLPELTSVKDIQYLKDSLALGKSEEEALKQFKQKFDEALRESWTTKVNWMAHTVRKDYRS

Cc1cccc2cc([C@H](C)Nc3ncnc4[nH]cc(F)c34)n(-c3ccccc3)c(=O)c12
IC50 [1]: < 0.1 µM
EC50 [2]: < 0.1 µM
IC50 (PI3K p110 beta/p85 alpha): < 0.1 µM
IC50 [3]: < 0.1 µM

Cc1ccccc1-n1c(Cn2nc(-c3cnn(C)c3)c3c(N)ncnc32)cc2cccc(C)c2c1=O
IC50 [1]: < 10 µM
IC50 [4]: > 10 µM
IC50 (PI3K p110 beta/p85 alpha): > 10 µM
IC50 [3]: < 1 µM

Nc1ncnc2c1c(-c1cn[nH]c1)nn2Cc1cc2cccc(F)c2c(=O)n1-c1ccccc1F
IC50 [1]: < 1 µM
IC50 [4]: > 10 µM
IC50 (PI3K p110 beta/p85 alpha): > 10 µM
IC50 [3]: < 10 µM

Cc1ccccc1-n1c(Cn2nc(CCC(N)=O)c3c(N)ncnc32)cc2cccc(C)c2c1=O
IC50 [1]: < 1 µM
IC50 [4]: > 10 µM
IC50 (PI3K p110 beta/p85 alpha): > 10 µM
IC50 [3]: < 10 µM

Cc1cccnc1-n1c(Cn2nc(Cl)c3c(N)ncnc32)cc2cccc(C)c2c1=O
IC50 [1]: < 1 µM
IC50 [4]: > 10 µM
EC50 [2]: < 1 µM
IC50 [3]: > 10 µM

Cc1ccccc1-n1c(Cn2nc(-c3ccc(Cl)cc3)c3c(N)ncnc32)cc2cccc(C)c2c1=O
IC50 [1]: < 1 µM
IC50 [4]: > 10 µM
EC50 [2]: < 10 µM
IC50 [3]: < 1 µM

Cc1cccc2cc([C@H](C)Nc3ncnc4[nH]cnc34)n(C3CC3)c(=O)c12
IC50 [1]: < 0.1 µM
EC50 [2]: < 0.1 µM
IC50 (PI3K p110 beta/p85 alpha): < 0.1 µM
IC50 [3]: < 0.1 µM

Cc1cccc2cc([C@H](C)Nc3ncnc4[nH]nc(C(N)=O)c34)n(-c3ccccc3)c(=O)c12
IC50 [1]: < 0.1 µM
EC50 [2]: < 0.1 µM
IC50 (PI3K p110 beta/p85 alpha): < 0.1 µM
IC50 [3]: < 0.1 µM

Cc1cccc2cc([C@H](C)Nc3ncnc4[nH]cc(F)c34)n(C3CC3)c(=O)c12
IC50 [1]: < 0.1 µM
EC50 [2]: < 0.1 µM
IC50 (PI3K p110 beta/p85 alpha): < 0.1 µM
IC50 [3]: < 0.1 µM

Cc1cccc2cc([C@H](C)Nc3ncnc4[nH]ccc34)n(C3CC3)c(=O)c12
IC50 [1]: < 0.1 µM
IC50 (PI3K p110 beta/p85 alpha): < 0.1 µM
IC50 [3]: < 0.1 µM

Cc1ccccc1-n1c(Cn2nc(Cl)c3c(N)ncnc32)cc2cccc(C)c2c1=O
IC50 [1]: < 0.1 µM
IC50 [4]: > 10 µM
EC50 [2]: < 1 µM
IC50 [3]: < 1 µM

Cc1ccccc1-n1c(Cn2nc(-c3cccc(O)c3)c3c(N)ncnc32)cc2ccccc2c1=O
IC50 [1]: < 0.1 µM
IC50 [4]: > 10 µM
EC50 [2]: < 1 µM
IC50 [3]: < 1 µM

Cc1cccnc1-n1c(Cn2nc(Br)c3c(N)ncnc32)cc2cccc(C)c2c1=O
IC50 [1]: < 1 µM
IC50 [4]: > 10 µM
EC50 [2]: < 0.1 µM
IC50 [3]: < 10 µM

CC(=O)Nc1nc2cc(-c3nn(Cc4cc5cccc(C)c5c(=O)n4-c4ccccc4)c4ncnc(N)c34)ccc2o1
IC50 [1]: < 0.1 µM
EC50 [2]: < 0.1 µM
IC50 (PI3K p110 beta/p85 alpha): < 0.1 µM
IC50 [3]: < 0.1 µM

Cc1ccncc1-n1c(Cn2nc(I)c3c(N)ncnc32)cc2cccc(C)c2c1=O
IC50 [1]: < 0.1 µM
EC50 [2]: < 1 µM
IC50 (PI3K p110 beta/p85 alpha): > 10 µM
IC50 [3]: < 1 µM

Cc1cccc2cc(Cn3nc(I)c4c(N)ncnc43)n(C(C)C)c(=O)c12
IC50 [1]: 0.1 to 10 µM
IC50 [4]: > 10 µM
IC50 (PI3K p110 beta/p85 alpha): > 10 µM
IC50 [3]: > 10 µM

Cc1cccc2cc([C@H](C)Nc3ncnc4[nH]cc(Br)c34)n(-c3ccccc3)c(=O)c12
IC50 [1]: < 0.1 µM
EC50 [2]: < 0.1 µM
IC50 (PI3K p110 beta/p85 alpha): < 0.1 µM
IC50 [3]: < 0.1 µM

Cc1cccc2cc([C@H](C)Nc3ncnc4[nH]cc(C(N)=O)c34)n(C3CC3)c(=O)c12
IC50 [1]: < 0.1 µM
IC50 (PI3K p110 beta/p85 alpha): < 0.1 µM
IC50 [3]: < 0.1 µM

COc1ccc(-c2nn(Cc3cc4cccc(C)c4c(=O)n3-c3ccccc3F)c3ncnc(N)c23)cc1OC
IC50 [1]: < 1 µM
IC50 [4]: > 10 µM
EC50 [2]: < 1 µM
IC50 [3]: < 1 µM

CCN(Cc1cc2cccc(C)c2c(=O)n1-c1ccccc1C)c1ncnc2[nH]cnc12
IC50 [1]: < 10 µM
IC50 [4]: > 10 µM
IC50 (PI3K p110 beta/p85 alpha): > 10 µM
IC50 [3]: < 10 µM

C=Cc1nn(Cc2cc3cccc(C)c3c(=O)n2-c2ccccc2F)c2ncnc(N)c12
IC50 [1]: < 1 µM
IC50 [4]: > 10 µM
IC50 (PI3K p110 beta/p85 alpha): > 10 µM
IC50 [3]: < 10 µM

Cc1cccc2cc(Cn3nc(-c4cnn(C)c4)c4c(N)ncnc43)n(-c3ccccc3F)c(=O)c12
IC50 [1]: < 10 µM
IC50 [4]: > 10 µM
IC50 (PI3K p110 beta/p85 alpha): > 10 µM
IC50 [3]: < 10 µM

Cc1cccc2cc([C@H](C)Nc3ncnc4[nH]cc(C#N)c34)n(C3CC3)c(=O)c12
IC50 [1]: < 0.1 µM
EC50 [2]: < 0.1 µM
IC50 (PI3K p110 beta/p85 alpha): < 0.1 µM
IC50 [3]: < 0.1 µM

Cc1cccc2cc([C@H](C)Nc3ncnc4[nH]nc(C(N)=O)c34)n(C3CC3)c(=O)c12
IC50 [1]: < 0.1 µM
IC50 (PI3K p110 beta/p85 alpha): < 0.1 µM
IC50 [3]: < 0.1 µM

C[C@H](Nc1ncnc2[nH]cnc12)c1cc2cccc(Cl)c2c(=O)n1C1CC1
IC50 [1]: < 0.1 µM
EC50 [2]: < 0.1 µM
IC50 (PI3K p110 beta/p85 alpha): < 0.1 µM
IC50 [3]: < 0.1 µM

Cc1cccc2cc(Cn3nc(-c4ccc5nc(N)sc5c4)c4c(N)ncnc43)n(-c3ccccc3)c(=O)c12
IC50 [1]: < 0.1 µM
IC50 [4]: < 100 µM
EC50 [2]: < 0.1 µM
IC50 [3]: < 0.1 µM

Cc1ccccc1-n1c(Cn2nc(CCC(=O)N3CCOCC3)c3c(N)ncnc32)cc2cccc(C)c2c1=O
IC50 [1]: < 10 µM
IC50 [4]: > 10 µM
IC50 (PI3K p110 beta/p85 alpha): > 10 µM
IC50 [3]: > 10 µM

Cc1cccc2cc([C@H](C)Nc3ncnc4[nH]cc(C#N)c34)n(-c3ccccc3)c(=O)c12
IC50 [1]: < 0.1 µM
IC50 (PI3K p110 beta/p85 alpha): < 0.1 µM
IC50 [3]: < 0.1 µM

Cc1cccc2cc(Cn3nc(-c4ccn[nH]4)c4c(N)ncnc43)n(-c3ccccc3F)c(=O)c12
IC50 [1]: < 1 µM
IC50 [4]: > 10 µM
IC50 (PI3K p110 beta/p85 alpha): > 10 µM
IC50 [3]: < 10 µM

Cc1cccc2cc(Cn3nc(-c4cccc(O)c4)c4c(N)ncnc43)n(C3CCCC3)c(=O)c12
IC50 [1]: < 0.1 µM
IC50 [4]: > 10 µM
IC50 (PI3K p110 beta/p85 alpha): < 10 µM
IC50 [3]: < 1 µM

Cc1cccc2cc(Cn3nc(/C=C4/CCNC4=O)c4c(N)ncnc43)n(-c3ccccc3F)c(=O)c12
IC50 [1]: < 10 µM
IC50 [4]: > 10 µM
IC50 (PI3K p110 beta/p85 alpha): > 10 µM
IC50 [3]: > 10 µM

Cc1ccccc1-n1c(CN(C)c2ncnc3[nH]cnc23)cc2cccc(C)c2c1=O
IC50 [4]: > 10 µM
IC50 (PI3K p110 beta/p85 alpha): > 10 µM
IC50 [3]: < 10 µM

Cc1ccccc1-n1c(Cn2nc(CN3CCOCC3)c3c(N)ncnc32)cc2cccc(C)c2c1=O
IC50 [1]: < 10 µM
IC50 [4]: > 10 µM
IC50 (PI3K p110 beta/p85 alpha): > 10 µM
IC50 [3]: > 10 µM

Cc1cccc2cc(Cn3nc(C#C[C@@H](C)O)c4c(N)ncnc43)n(C3CCCC3)c(=O)c12
IC50 [1]: < 0.1 µM
IC50 [4]: > 10 µM
IC50 (PI3K p110 beta/p85 alpha): < 10 µM
IC50 [3]: < 10 µM

Cc1cccc2cc([C@H](C)Nc3ncnc4[nH]nc(C#N)c34)n(-c3ccccc3)c(=O)c12
IC50 [1]: < 0.1 µM
EC50 [2]: < 0.1 µM
IC50 (PI3K p110 beta/p85 alpha): < 0.1 µM
IC50 [3]: < 0.1 µM

Cc1cccc2cc(Cn3nc(I)c4c(N)ncnc43)n(-c3ccccc3Cl)c(=O)c12
IC50 [1]: < 0.1 µM
EC50 [2]: < 1 µM
IC50 (PI3K p110 beta/p85 alpha): > 10 µM
IC50 [3]: < 1 µM

COc1cc(F)cc(-c2nn(Cc3cc4cccc(C)c4c(=O)n3-c3ccccc3C)c3ncnc(N)c23)c1
IC50 [1]: < 1 µM
IC50 [4]: > 10 µM
IC50 (PI3K p110 beta/p85 alpha): > 10 µM
IC50 [3]: < 10 µM

Cc1cccc2cc([C@H](C)Nc3ncnc4[nH]cc(Cl)c34)n(-c3ccccc3)c(=O)c12
IC50 [1]: < 0.1 µM
IC50 (PI3K p110 beta/p85 alpha): < 0.1 µM
IC50 [3]: < 0.1 µM

Cc1ccccc1-n1c(Cn2nc(/C=C/C(=O)N3CCOCC3)c3c(N)ncnc32)cc2cccc(C)c2c1=O
IC50 [1]: < 1 µM
IC50 [4]: > 10 µM
IC50 (PI3K p110 beta/p85 alpha): > 10 µM
IC50 [3]: > 10 µM

Cc1cccc2cc(Cn3nc(-c4ccc5oc(N)nc5c4)c4c(N)ncnc43)n(C3CC3)c(=O)c12
IC50 [1]: < 0.1 µM
IC50 [4]: < 100 µM
EC50 [2]: < 0.1 µM
IC50 [3]: < 0.1 µM

Source: ChEMBL document CHEMBL3879901, “Substituted isoquinolin-1(2H)-ones, and methods of use thereof” (2012)
